Laboratory results taken from ChEMBL document CHEMBL2163308, “Small molecule activators of proteasome-related HslV peptidase” (Bioorg Med Chem Lett, 2012).

Experiments:
Escherichia coli = assay: Activation of recombinant Escherichia coli HslV expressed in Escherichia coli BL21( DE3) cells using Z-GGL-AMC as substrate by fluorescence analysis
[1] = Activation of recombinant Escherichia coli HslU C-tail expressed in Escherichia coli BL21( DE3) cells using Z-GGL-AMC as substrate by fluorescence analysis

Row | SMILES | ED50 (Escherichia coli) | ED50 [1]
1 | O=C(Cn1c(-c2ccccn2)nc2ccccc21)c1ccc(O)c(O)c1 | 0.6 µM | 2.6 µM
2 | O=C(Cn1c(-c2ccccn2)nc2ccccc21)c1ccc([N+](=O)[O-])cc1 | 0.6 µM | 2.6 µM
3 | O=c1c2ccccc2nc(-c2ccc([N+](=O)[O-])cc2)n1/N=C/c1c(O)ccc2ccccc12 | 0.9 µM | 2.6 µM
4 | O=C(N/N=C/c1cc(=O)c2ccccc2o1)c1ccccc1 | 1.3 µM | 2.6 µM
